In the NIST ThermoML archive (doi:10.1021/acs.jced.8b00610):
Where “and” joins values, the source holds several entries; their conditions need not be identical. Identical values can stand only once. ± gives the expanded uncertainty stated by the source.

Conditions: Liquid, Ebulliometric method (Recirculating still)

Row | SMILES | vapor or sublimation pressure (373.1 K) [kPa] | vapor or sublimation pressure (355.7 K)
1 | O [water] | 101.3 ± 1.4 | 
2 | CC(C)O [propan-2-ol] |  | 101.3 ± 1.4 kPa and 101.32 ± 10 kPa
